Results published in patent US9464064B2, “HCV helicase inhibitors and methods of use thereof” (University of Kansas, priority 2011, dated 2016).
Where two headings read alike, the source gives them in different places.

Columns and labels:
[1] = molecular target: T1, E. coli SSB-Cy5-dT15 complex (Escherichia coli, UniProt P0AGE0); experiment: Escherichia coli SSB Cy5-dT15 binding assay (fluorescence polarization); settings: for IC50: disruption of Cy5-dT15-SSB complex, read-out: Cy5-dT15-SSB Binding IC50; for inhibition at 100 µM: read-out: SSB % Displaced @ 100 μM; for EC50: read-out: SSB EC50
T1 construct: purchased Promega
Procedure: The Escherichia coli SSB assay was performed in a total volume of 20.2 μl in 384-well, flat-bottom, low volume, black microplates (Greiner Bio-One). First, 20 μl of a assay solution (5 nM Cy5-[…]-3′ (Cy5-dT15, SEQ ID NO:5), 20 nM E. coli SSB (Promega), 25 mM MOPS, pH 7.5, 1.25 mM MgCl2, 0.0025 mg/ml BSA, 0.005% (v/v) TWEEN 20 and 0.025 mM DTT) was dispensed in each well, then 0.2 μl of dimethylsulfoxide (DMSO) or compound dissolved in DMSO was added by pin transfer, such that the final concentration of DMSO was 1% (v/v) in each assay.
For IC50 determination, assays were performed with 60 μl total volume in black flat bottomed 384-well microplates (Corning). First, 3.0 μl of DMSO or compound dissolved in DMSO was added, such that the final concentration of DMSO was 5% (v/v) in each assay. Then 57 μl of a assay solution (5 nM Cy5-dT15, 20 nM SSB, 25 mM MOPS, pH 7.5, 1.25 mM MgCl2, 0.0025 mg/ml BSA, 0.005% (v/v) TWEEN 20 and 0.025 mM DTT) was dispensed in each well. Polarization was monitored with a TECAN Infinite M1000 PRO multi-mode microplate reader by exciting at 635 nm (5 nm bandwidth) and measuring total fluorescence intensity, parallel and perpendicular polarized light at 667 nm (20 nm bandwidth).

[2] = molecular target: T2, NS3h_2a(JFH1) (Hepatitis C virus genotype 2a, UniProt Q99IB8); experiment: MBHA, DNA substrate, genotype 2a helicase; type: biochemical, hepatitis C virus genotype 2a(JFH1)
T2 construct: truncated C-terminally His-tagged NS3 proteins lacking the N-terminal protease, called NS3h; His-tag (C); made in house
Procedure: All oligonucleotides were purchased from Integrated DNA Technologies (IDT, Coralville, Iowa). Primuline derivatives were synthesized and purified as described herein. Three different NS3 proteins were used in this study. Two were truncated C-terminally His-tagged NS3 proteins lacking the N-terminal protease, called NS3h, the third was a full-length NS3 with the portion of NS4A needed for protease activation fused to its N-terminus, called scNS4A-NS3 (Howe, et al. (1999) Protein Sci. 8:1332-41), and the fourth was a 23 kDa scNS4A-NS3 protease fragment lacking the helicase domains, called scNS4A-NS3p (Protein One, Rockville, Md.). NS3h was expressed from two different HCV strains. NS3h_1b(con1) was from the con1 strain of genotype 1b (GENBANK accession AB114136), and NS3h_2a(JFH1) was from the JFH1 strain of HCV genotype 2a (GENBANK accession AJ238799). […] His-tagged recombinant NS3h_1b(con1), NS3h_2a(JFH1), and scNS4A-NS3 (also from genotype 1b(con1)) were expressed, and purified as previously described (Frick, et al. (2010) supra; Lam, et al. (2003) J. Virol. 77:3950-3961). The scNS4A-NS3p (genotype 1b) was from Protein One. A plasmid expressing NS3h from dengue virus strain 2 (NS3h_DV2)(GENBANK accession 2BMF) is known in the art (Xu, et al. (2005) J. Virol. 79:10278-10288), and used to express and purify NS3h_DV2 (Belon, et al. (2010) supra)
Compounds that specifically target less conserved regions of a HCV protein are often not potent inhibitors of the same protein derived from other genotypes, and they might be susceptible to rapid evolution of related viruses. As described herein, primuline derivatives can inhibit HCV helicase isolated from the genotype 1b(con1) strain. Therefore to further analyze specificity, the subset of primuline analogs was tested on the helicase isolated from the genotype 2a(JFH1) strain. The two recombinant proteins differ at 83 of their 480 amino acids. The JHF1 strain is also of interest because it serves as the backbone for HCV strains capable of replicating in cell culture (Wakita, et al. (2005) Nat. Med. 11:791-796). The molecular beacon-based helicase assay (MBHA) (Belon & Frick (2008) supra) was used to measure the ability of each compound to inhibit DNA unwinding catalyzed by NS3h isolated from genotype 2a(JFH1) (NS3h_2a(JFH1)). […] Selected compounds were also tested for the ability to inhibit helicase reactions catalyzed by full-length NS3 and a single chain NS4A-NS3 protein (scNS4A-NS3) described below and used for protease assays.

[3] = genotype 2a (JFH1), read-out: Target Potency MBHA (IC50 avg., μM) 2a (JFH1) (converted)
[4] = DNA-based MBHA, genotype 2a(JFH1), read-out: DNA Helicase NS3h_2a IC50 (μM) ± SD

T2 sequence (Q99IB8 1196-1661): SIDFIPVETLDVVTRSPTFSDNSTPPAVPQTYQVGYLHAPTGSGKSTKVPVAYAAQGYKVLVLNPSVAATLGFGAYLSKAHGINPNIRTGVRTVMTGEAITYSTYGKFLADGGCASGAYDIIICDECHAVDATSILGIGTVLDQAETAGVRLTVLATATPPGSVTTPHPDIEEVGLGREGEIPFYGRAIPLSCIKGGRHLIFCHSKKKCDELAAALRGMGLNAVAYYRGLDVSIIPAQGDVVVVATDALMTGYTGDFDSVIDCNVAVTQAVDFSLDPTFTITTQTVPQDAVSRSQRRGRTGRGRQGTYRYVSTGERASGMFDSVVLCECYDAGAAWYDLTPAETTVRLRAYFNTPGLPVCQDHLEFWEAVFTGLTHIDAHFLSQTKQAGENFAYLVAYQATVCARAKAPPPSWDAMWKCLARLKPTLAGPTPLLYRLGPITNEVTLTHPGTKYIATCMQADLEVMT
T1 sequence (P0AGE0 2-178, one chain of several): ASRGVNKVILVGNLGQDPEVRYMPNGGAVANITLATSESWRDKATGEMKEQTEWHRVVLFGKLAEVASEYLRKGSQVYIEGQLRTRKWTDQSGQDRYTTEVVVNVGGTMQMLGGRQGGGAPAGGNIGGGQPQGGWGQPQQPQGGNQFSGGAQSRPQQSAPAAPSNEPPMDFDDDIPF

| Structure (SMILES) | IC50 [1] | inhibition at 100 µM [1] | EC50 [1] | IC50 [2, 3] | IC50 [2, 4] |
| --- | --- | --- | --- | --- | --- |
| Cc1ccc2nc(-c3ccc4nc(-c5ccc(NC(=O)c6ccccc6C(F)(F)F)cc5)sc4c3)sc2c1S(=O)(=O)O [Compound 19, 6-methyl-2′-(4-(2-(trifluoromethyl)benzamido)phenyl)-[2,6′-bibenzo[d]thiazole]-7-sulfonic acid] | 13 ± 2 µM | 92% | 13 ± 2 µM | 24.3 ± 9 µM |  |
| Cc1ccc2nc(-c3ccc4nc(-c5ccc(NC(=O)c6cccc(C(F)(F)F)c6)cc5)sc4c3)sc2c1S(=O)(=O)O [Compound 20, 6-methyl-2′-(4-(3-(trifluoromethyl)benzamido)phenyl)-[2,6′-bibenzo[d]thiazole]-7-sulfonic acid] |  | 23% | > 100 µM | 15.9 ± 2 µM |  |
| Cc1ccc2nc(-c3ccc4nc(-c5ccc(NC(=O)c6c(F)cccc6C(F)(F)F)cc5)sc4c3)sc2c1S(=O)(=O)O [Compound 21, 2′-(4-(2-fluoro-6-(trifluoromethyl)benzamido)phenyl)-6-methyl-[2,6′-bibenzo[d]thiazole]-7-sulfonic acid] | 13 ± 1 µM | 96% | 13 ± 1 µM | 54 ± 19.7 µM |  |
| Cc1ccc2nc(-c3ccc4nc(-c5ccc(NC(=O)c6cccc(C(F)(F)F)c6F)cc5)sc4c3)sc2c1S(=O)(=O)O [Compound 22, 2′-(4-(2-fluoro-3-(trifluoromethyl)benzamido)phenyl)-6-methyl-[2,6′-bibenzo[d]thiazole]-7-sulfonic acid] | 71 ± 13 µM | 63% | 71 ± 13 µM | 8.1 ± 2 µM |  |
| Cc1ccc2nc(-c3ccc4nc(-c5ccc(NC(=O)c6ccc(C(F)(F)F)c(F)c6)cc5)sc4c3)sc2c1S(=O)(=O)O [Compound 23, 2′-(4-(3-fluoro-4-(trifluoromethyl)benzamido)phenyl)-6-methyl-[2,6′-bibenzo[d]thiazole]-7-sulfonic acid] | 10 ± 1 µM | 92% | 10 ± 1 µM | 13 ± 2 µM |  |
| Cc1ccc2nc(-c3ccc4nc(-c5ccc(NC(=O)c6cc(C(F)(F)F)cc(C(F)(F)F)c6)cc5)sc4c3)sc2c1S(=O)(=O)O [Compound 24, 2′-(4-(3,5-bis(trifluoromethyl)benzamido)phenyl)-6-methyl-[2,6′-bibenzo[d]thiazole]-7-sulfonic acid] | 36 ± 7 µM | 73% | 36 ± 7 µM | 28.7 ± 5 µM | 29 ± 5.2 µM |
| Cc1ccc2nc(-c3ccc4nc(-c5ccc(NC(=O)c6cc(C(F)(F)F)ccc6F)cc5)sc4c3)sc2c1S(=O)(=O)O [Compound 25, 2′-(4-(2-fluoro-5-(trifluoromethyl)benzamido)phenyl)-6-methyl-[2,6′-bibenzo[d]thiazole]-7-sulfonic acid] | 12 ± 8 µM | 69% | 12 ± 8 µM | 6.7 ± 1 µM | 7 ± 0.9 µM |
| Cc1ccc2nc(-c3ccc4nc(-c5ccc(NC(=O)c6cc(F)ccc6C(F)(F)F)cc5)sc4c3)sc2c1S(=O)(=O)O [Compound 26, 2′-(4-(5-fluoro-2-(trifluoromethyl)benzamido)phenyl)-6-methyl-[2,6′-bibenzo[d]thiazole]-7-sulfonic acid] | 14 ± 2 µM | 95% | 14 ± 2 µM | 16.6 ± 2 µM |  |
| Cc1ccc2nc(-c3ccc4nc(-c5ccc(NC(=O)c6cc(F)cc(C(F)(F)F)c6)cc5)sc4c3)sc2c1S(=O)(=O)O [Compound 27, 2′-(4-(3-fluoro-5-(trifluoromethyl)benzamido)phenyl)-6-methyl-[2,6′-bibenzo[d]thiazole]-7-sulfonic acid] |  | 23% | > 100 µM | 15.8 ± 2.2 µM |  |
| Cc1ccc(NC(=O)Nc2ccc(-c3nc4ccc(-c5nc6ccc(C)c(S(=O)(=O)O)c6s5)cc4s3)cc2)cc1 [Compound 28, 6-methyl-2′-(4-(3-(p-tolyl)ureido)phenyl)-[2,6′-bibenzo[d]thiazole]-7-sulfonic acid] | 10 ± 3 µM | 96% | 10 µM | 4 µM |  |
| COc1ccc(S(=O)(=O)Nc2ccc(-c3nc4ccc(-c5nc6ccc(C)c(S(=O)(=O)O)c6s5)cc4s3)cc2)cc1 [Compound 29, 2′-(4-(4-methoxyphenylsulfonamido)phenyl)-6-methyl-[2,6′-bibenzo[d]thiazole]-7-sulfonic acid] | 10 ± 2 µM | 98% | 10 µM | 13.4 µM |  |
| CC(=O)Nc1ccc(-c2nc3ccc(-c4nc5ccc(C)c(S(=O)(=O)O)c5s4)cc3s2)cc1 [Compound 30, 2′-(4-acetamidophenyl)-6-methyl-[2,6′-bibenzo[d]thiazole]-7-sulfonic acid] | 17 ± 4 µM | 89% | 17 µM | > 100 µM |  |
| Cc1ccc2nc(-c3ccc4nc(-c5ccc(NC(=O)c6cccnc6)cc5)sc4c3)sc2c1S(=O)(=O)O [Compound 31, 6-methyl-2′-(4-(nicotinamido)phenyl)-[2,6′-bibenzo[d]thiazole]-7-sulfonic acid] | 173 ± 354 µM | 48% | > 100 µM | 48 µM |  |
| Cc1ccc2nc(-c3ccc4nc(-c5ccc(NC(=O)c6ccncc6)cc5)sc4c3)sc2c1S(=O)(=O)O [Compound 32, 2′-(4-(isonicotinamido)phenyl)-6-methyl-[2,6′-bibenzo[d]thiazole]-7-sulfonic acid] | 55 ± 20 µM | 63% | 55 µM | 52 ± 25 µM |  |
| Cc1ccc2nc(-c3ccc4nc(-c5ccc(NC(=O)c6ccc7ccccc7c6)cc5)sc4c3)sc2c1S(=O)(=O)O [Compound 33, 2′-(4-(2-naphthamido)phenyl)-6-methyl-[2,6′-bibenzo[d]thiazole]-7-sulfonic acid] | 28 ± 9 µM | 78% | 28 µM | 4.4 µM | 2 ± 0.6 µM |
| Cc1ccc2nc(-c3ccc4nc(-c5ccc(N(C)C(=O)c6ccc7ccccc7c6)cc5)sc4c3)sc2c1S(=O)(=O)O [Compound 34, 6-methyl-2′-(4-(N-methyl-2-naphthamido)phenyl)-[2,6′-bibenzo[d]thiazole]-7-sulfonic acid] | 9 ± 2 µM | 105% | 9 µM | 13.5 µM |  |
| Cc1ccc2nc(-c3ccc4nc(-c5ccc(NC(=O)c6ccc7nc(-c8ccc(N)cc8)sc7c6)cc5)sc4c3)sc2c1S(=O)(=O)O [Compound 35, 2′-(4-(2-(4-aminophenyl)benzo[d]thiazole-6-carboxamido)phenyl)-6-methyl-[2,6′-bibenzo[d]thiazole]-7-sulfonic acid] | 3 ± 1 µM | 95% |  | 3.5 µM | 3 ± 1.2 µM |
| Cc1ccc2nc(-c3ccc4nc(-c5ccc(NC(=O)c6ccc7nc(-c8ccc(NC(=O)OCC9c%10ccccc%10-c%10ccccc%109)cc8)sc7c6)cc5)sc4c3)sc2c1S(=O)(=O)O.N [Compound 36] | 5 ± 1 µM | 95% | 5 µM | 1.9 µM |  |
